Results published in patent US20250000932A1, “DIAGNOSIS AND TREATMENT OF VA[…]” (University Of Maryland, Baltimore, priority 2023, published 2025).

System: patients with catecholamine-resistant vasodilatory shock
Experiment: ATHOS-3: safety (adverse events, serious adverse events)
Type: in vivo, human
Details: patients with elevated renin concentrations at baseline
Description: The use of Angiotensin II for the Treatment of High-Output Shock 3 (ATHOS-3) study has been described by Khanna et al. and Chawla et al. In brief, adults with vasodilatory shock despite volume resuscitation with 2:25 mL/kg and high-dose vasopressors were randomly assigned 1:1 to receive synthetic human angiotensin II (La Jolla Pharmaceutical Company™) or saline placebo plus standard vasopressors. Randomization was stratified according to MAP at screening and Acute Physiology and Chronic Health Evaluation II (APACHE II) score.
The study drug infusion started at 20 ng/kg/min and was adjusted during the first 3 hours to increase the MAP to 2:75 mm Hg while keeping other vasopressors constant. Thereafter, the study drug and other vasopressors were adjusted at the discretion of the treating ICU team to maintain a MAP between 65 and 75 mm Hg. At 48 hours, the infusion was discontinued according to a protocol-specified tapering process. However, continuation was allowed for up to 7 days at the discretion of the ICU team.
Safety was evaluated by assessment of treatment-emergent adverse events, serious adverse events, and adverse event-related drug discontinuations.

Compound: CC[C@H](C)[C@H](NC(=O)[C@H](Cc1ccc(O)cc1)NC(=O)[C@@H](NC(=O)[C@H](CCCNC(=N)N)NC(=O)[C@@H](N)CC(=O)O)C(C)C)C(=O)N[C@@H](Cc1cnc[nH]1)C(=O)N1CCC[C@H]1C(=O)N[C@@H](Cc1ccccc1)C(=O)O [Angiotensin II, angiotensin II]
- adverse events or serious adverse events vs placebo: no significant difference
